What was measured:
CDK4/Cyclin D1 = CDK4/Cyclin D1 (Homo sapiens (Human), UniProt P11802); experiment: CDK4/CyclinD1 enzymatic activity assay (TR-FRET); assay type: biochemical; settings: ATP 2 mM, read-out: CDK4_D1 IC50
How it was run: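 Insect-cell CDK4/Cyclin D1 (1 nM) with ULight-4E-BP1 (100 nM) and 2 mM ATP in HEPES pH 7.4 buffer, preincubated 20 min with compound (9-dose, 3-fold dilutions); 10 mM MgCl2 started the reaction, run 60 min at 37 °C. EDTA/Eu-anti-phospho-4E-BP1 TR-FRET detection; IC50 from 4-parameter Hill fit.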

CDK6/Cyclin D1 = CDK6/Cyclin D1 (Homo sapiens (Human), UniProt Q00534); experiment: CDK6/CyclinD1 enzymatic activity assay (TR-FRET); assay type: biochemical; settings: ATP 250 μM, read-out: CDK6_D1 IC50
Chain of CDK6/Cyclin D1 (Q00534 whole entry): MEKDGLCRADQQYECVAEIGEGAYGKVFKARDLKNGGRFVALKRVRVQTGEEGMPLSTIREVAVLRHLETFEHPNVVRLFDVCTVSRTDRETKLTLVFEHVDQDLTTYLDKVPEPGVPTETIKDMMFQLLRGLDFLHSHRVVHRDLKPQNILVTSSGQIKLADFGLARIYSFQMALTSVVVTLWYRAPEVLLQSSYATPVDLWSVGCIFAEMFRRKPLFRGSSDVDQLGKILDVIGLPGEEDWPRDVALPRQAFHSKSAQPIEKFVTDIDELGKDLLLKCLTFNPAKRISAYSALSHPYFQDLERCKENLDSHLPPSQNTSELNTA
Chain of CDK6/Cyclin D1 (P24385 whole entry partner): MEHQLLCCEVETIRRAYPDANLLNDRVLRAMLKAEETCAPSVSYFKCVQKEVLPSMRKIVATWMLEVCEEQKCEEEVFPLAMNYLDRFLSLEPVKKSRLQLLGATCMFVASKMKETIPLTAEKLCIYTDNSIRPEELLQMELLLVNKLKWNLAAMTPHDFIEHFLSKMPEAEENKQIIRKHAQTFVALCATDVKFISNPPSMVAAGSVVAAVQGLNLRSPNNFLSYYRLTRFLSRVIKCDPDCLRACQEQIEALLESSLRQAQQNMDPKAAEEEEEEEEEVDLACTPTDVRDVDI
How it was run: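 Insect-cell-expressed CDK6/Cyclin D1 (1 nM) phosphorylated ULight-4E-BP1 (100 nM) with 250 μM ATP in HEPES pH 7.4 buffer. After 20 min compound preincubation, reactions were started with 10 mM MgCl2 and run 60 min at 37 °C. EDTA-quenched samples were read by TR-FRET with Eu-anti-P-4E-BP1; IC50 from 9-dose 4-parameter fits.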

[1] = tested on: MCF7 adenocarcinoma cell line; experiment: Cell proliferation studies in MCF7 cells (ATP-Lite, 10 days); assay type: cell-based; settings: Homo sapiens, 240 h, read-out: PROLIFERATION_CTG_MCF7 IC50
How it was run: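 Cells were seeded at 100 or 200 per well in DMEM with 10% FBS and dosed in quadruplicate over a 9-point 3-fold dilution. Incubation lasted 10 days at 37 °C, with media exchange and re-dosing on day 5. Viability was read by ATP-Lite luminescence and normalised to background and DMSO, giving IC50.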

[2] = Brain-to-plasma ratio (Kp) determination in Sprague-Dawley rats; settings: male, rat, po, 10 mg/kg
Method: The brain-to-plasma ratio (Kp) was determined in male Sprague-Dawley rats (7-9 weeks old) four hours after a single oral dose. Rats were acclimated and given free access to standard rodent chow and water throughout the entire study. Test articles were formulated as a solution at 0.3, 0.4, 0.5, or 1.0 mg/mL in a vehicle comprised of 10:15:75 (v:v:v) dimethylacetamide (DMA):Solutol HS15:water and delivered orally at a rate of 10 mL/kg to three rats to achieve final doses of 3, 4, 5, or 10 mg/kg, respectively. At 4 hours post-dose, blood samples were collected via jugular vein cannula into tubes containing K2EDTA as the anticoagulant and stored on ice. Blood samples were then centrifuged at 4° C. at 6000 rpm for 5 minutes, and the resulting plasma was placed into tubes and stored frozen at −80° C. until analysis. Whole brain samples were also collected at 4 hours post-dose. The weight of each brain was measured and recorded, and samples were immediately stored on dry ice. Brain samples were then transferred to storage at −80° C. until analysis.
Prior to analysis, brain samples were combined with water (4 mL/1 gram of brain) and homogenized. Prior to injection, plasma and brain homogenate samples and standards were prepared for analysis by precipitation with acetonitrile or 1:1 (v:v) methanol:acetonitrile. Samples were then thoroughly mixed, centrifuged at 4000 rpm for 15 minutes, and the resulting supernatant was transferred for analysis. Test article concentrations in plasma and brain homogenate were then determined by LC-MS/MS and quantified against calibration standards prepared to known concentrations in matched blank (analyte-free) biological matrix. The Kp was then determined by dividing the dilution-corrected brain concentration by the plasma concentration from each rat. A brain density of 1 gram/mL was assumed for all calculations.

[3] = brain (homogenate) versus plasma

Chain of CDK4/Cyclin D1 (P11802 whole entry): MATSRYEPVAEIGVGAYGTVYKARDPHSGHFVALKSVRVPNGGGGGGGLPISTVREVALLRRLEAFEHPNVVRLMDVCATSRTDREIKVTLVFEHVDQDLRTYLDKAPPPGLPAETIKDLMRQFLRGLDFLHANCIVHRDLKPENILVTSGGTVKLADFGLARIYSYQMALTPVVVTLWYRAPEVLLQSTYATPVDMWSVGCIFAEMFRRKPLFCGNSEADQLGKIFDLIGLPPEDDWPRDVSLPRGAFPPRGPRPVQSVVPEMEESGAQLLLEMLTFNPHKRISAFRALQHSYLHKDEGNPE
Chain of CDK4/Cyclin D1 (P24385 whole entry partner): as the sequence (P24385 whole entry partner) above

Row | Compound | IC50 (CDK4/Cyclin D1) [nM] | IC50 (CDK6/Cyclin D1) [nM] | IC50 [1] [nM] | Kp at 4 h [2, 3] | Kp at 4 h ([2]; brain / plasma)
1 | CCN1C2CC1CN(c1ccc(Nc3ncc(F)c(-c4cc5nc(C)n(C(C)C)c5s4)n3)nc1)C2 [Example 74, N-[5-(6-ethyl-3,6-Diazabicyclo[3.1.1]heptan-3-yl)pyridin-2-yl]-5-fluoro-4-(2-methyl-3-propan-2-ylthieno[2,3-d]imidazol-5-yl)pyrimidin-2-amine] | ≤ 20 | 20 to 200 | 20 to 200 | < 1 | –
2 | CCN1CCN(Cc2ccc(Nc3ncc(F)c(-c4sc5c(C(C)C)cn(C)c(=O)c5c4C)n3)nc2)CC1 [Example 90, 2-(2-((5-((4-Ethylpiperazin-1-yl)methyl)pyridin-2-yl)amino)-5-fluoropyrimidin-4-yl)-7-isopropyl-3,5-dimethylthieno[3,2-c]pyridin-4(5H)-one] | ≤ 20 | 20 to 200 | 20 to 200 | < 1 | –
3 | Cc1c(-c2nc(Nc3ccc(N4CCC5(CC4)CN(C)C5)cn3)ncc2F)sc2c(C(C)C)cn(C)c(=O)c12 [Example 91, 2-(5-Fluoro-2-((5-(2-methyl-2,7-diazaspiro[3.5]nonan-7-yl)pyridin-2-yl)amino)pyrimidin-4-yl)-7-isopropyl-3,5-dimethylthieno[3,2-c]pyridin-4(5H)-one] | ≤ 20 | ≤ 20 | 20 to 200 | < 1 | –
4 | Cc1c(-c2nc(Nc3ccc(C4CCN(C)CC4)nn3)ncc2F)sc2c(C(C)C)cn(C)c(=O)c12 [Example 93, 2-(5-Fluoro-2-((6-(1-methylpiperidin-4-yl)pyridazin-3-yl)amino)pyrimidin-4-yl)-7-isopropyl-3,5-dimethylthieno[3,2-c]pyridin-4(5H)-one] | ≤ 20 | 20 to 200 | 20 to 200 | < 1 | –
5 | Cc1c(-c2nc(Nc3ccc(C4CCN(C(C)C)C4)cn3)ncc2F)sc2c(C(C)C)cn(C)c(=O)c12 (stereo not drawn) [Example 95, 2-(5-Fluoro-2-((5-(1-isopropylpyrrolidin-3-yl)pyridin-2-yl)amino)pyrimidin-4-yl)-7-isopropyl-3,5-dimethylthieno[3,2-c]pyridin-4(5H)-one] | ≤ 20 | 20 to 200 | 20 to 200 | 1 to 3 | –
6 | Cc1cnc(Nc2ccc(C3CCN(C)CC3)cn2)nc1-c1cc2c(=O)n(C)cc(C(C)C)c2s1 [Example 97, 7-Isopropyl-5-methyl-2-(5-methyl-2-((5-(1-methylpiperidin-4-yl)pyridin-2-yl)amino)pyrimidin-4-yl)thieno[3,2-c]pyridin-4(5H)-one] | ≤ 20 | ≤ 20 | ≤ 20 | < 1 | –
7 | CC(C)c1c2sc(-c3nc(Nc4ccc(C5CCN(C)CC5)cn4)ncc3F)cc2nn1C [Example 99, 5-Fluoro-4-(3-isopropyl-2-methyl-2H-thieno[3,2-c]pyrazol-5-yl)-N-(5-(1-methylpiperidin-4-yl)pyridin-2-yl)pyrimidin-2-amine] | ≤ 20 | 20 to 200 | 20 to 200 | > 3 | –
8 | CCN1CCN(c2ccc(Nc3ncc(F)c(-c4sc5c(C(C)(O)C(F)(F)F)n(C)nc5c4C)n3)nc2)CC1 (stereo not drawn) [Example 102, 2-(5-(2-((5-(4-Ethylpiperazin-1-yl)pyridin-2-yl)amino)-5-fluoropyrimidin-4-yl)-2,6-dimethyl-2H-thieno[3,2-c]pyrazol-3-yl)-1,1,1-trifluoropropan-2-ol] | ≤ 20 | ≤ 20 | 20 to 200 | 1 to 3 | –
9 | CCN1CC2(CC(c3ccc(Nc4ncc(F)c(-c5cc6nc(C)n(C(C)C)c6s5)n4)nc3)C2)C1 [Example 112, N-(5-(2-Ethyl-2-azaspiro[3.3]heptan-6-yl)pyridin-2-yl)-5-fluoro-4-(3-isopropyl-2-methyl-3H-thieno[2,3-d]imidazol-5-yl)pyrimidin-2-amine] | ≤ 20 | 20 to 200 | 20 to 200 | < 1 | –
10 | Cc1nc2cc(-c3nc(Nc4ccc(OC5CCN(C)C5)cn4)ncc3F)sc2n1C(C)C (stereo not drawn) [Example 114, 5-Fluoro-4-(2-methyl-3-propan-2-ylthieno[2,3-d]imidazol-5-yl)-N-[5-(1-methylpyrrolidin-3-yl)oxypyridin-2-yl]pyrimidin-2-amine] | ≤ 20 | 20 to 200 | 20 to 200 | – | 1 to 3
11 | Cc1nc2cc(-c3nc(Nc4ccc(C5CCN(C)CC5)cn4)ncc3C(F)(F)F)sc2n1C(C)C [Example 120, 4-(3-Isopropyl-2-methyl-3H-thieno[2,3-d]imidazol-5-yl)-N-(5-(1-methylpiperidin-4-yl)pyridin-2-yl)-5-(trifluoromethyl)pyrimidin-2-amine] | ≤ 20 | ≤ 20 | 20 to 200 | 1 to 3 | –
12 | Cc1c(-c2nc(Nc3ccc(C4CCN(C)CC4)cn3)ncc2F)sc2c(C(C)C)cncc12 [Example 123, 5-Fluoro-N-[5-(1-methylpiperidin-4-yl)pyridin-2-yl]-4-(3-methyl-7-propan-2-ylthieno[3,2-c]pyridin-2-yl)pyrimidin-2-amine] | ≤ 20 | 20 to 200 | 20 to 200 | > 3 | –

The remaining lines, values ahead:

Row | IC50 (CDK4/Cyclin D1) [nM] | IC50 (CDK6/Cyclin D1) [nM] | IC50 [1] [nM] | Kp at 4 h [2, 3] | Kp at 4 h ([2]; brain / plasma) | Compound
13 | ≤ 20 | ≤ 20 | 20 to 200 | 1 to 3 | – | Cc1c(-c2nc(Nc3ccc(N4CC5(CCN(C)CC5)C4)cn3)ncc2F)sc2c(C(C)C)cn(C)c(=O)c12 [Example 77, 2-(5-Fluoro-2-((5-(7-methyl-2,7-diazaspiro[3.5]nonan-2-yl)pyridin-2-yl)amino)pyrimidin-4-yl)-7-isopropyl-3,5-dimethylthieno[3,2-c]pyridin-4(5H)-one]
14 | ≤ 20 | ≤ 20 | 20 to 200 | 1 to 3 | – | Cc1c(-c2nc(Nc3ccc(N4C[C@H]5CN(C)C[C@H]5C4)cn3)ncc2F)sc2c(C(C)C)cn(C)c(=O)c12 [Example 78, 2-(5-Fluoro-2-((5-((3aR,6aS)-5-methylhexahydropyrrolo[3,4-c]pyrrol-2(1H)-yl)pyridin-2-yl)amino)pyrimidin-4-yl)-7-isopropyl-3,5-dimethylthieno[3,2-c]pyridin-4(5H)-one]
15 | ≤ 20 | ≤ 20 | 20 to 200 | < 1 | – | Cc1c(-c2nc(Nc3ccc(N4C[C@@H]5CN(C)C[C@H]5C4)cn3)ncc2F)sc2c(C(C)C)cn(C)c(=O)c12 [Example 79, 2-(5-Fluoro-2-((5-((3aS,6aS)-5-methylhexahydropyrrolo[3,4-c]pyrrol-2(1H)-yl)pyridin-2-yl)amino)pyrimidin-4-yl)-7-isopropyl-3,5-dimethylthieno[3,2-c]pyridin-4(5H)-one]
16 | ≤ 20 | ≤ 20 | 20 to 200 | > 3 | – | [2H]C([2H])([2H])N1CCC(c2ccc(Nc3ncc(F)c(-c4sc5c(C(C)C)cn(C)c(=O)c5c4C)n3)nc2)CC1 [Example 82, 2-(5-Fluoro-2-((5-(1-(methyl-d3)piperidin-4-yl)pyridin-2-yl)amino)pyrimidin-4-yl)-7-isopropyl-3,5-dimethylthieno[3,2-c]pyridin-4(5H)-one]
17 | ≤ 20 | ≤ 20 | 20 to 200 | 1 to 3 | – | Cc1c(-c2nc(Nc3ccc(C4CCN(C5CCOC5)CC4)cn3)ncc2F)sc2c(C(C)C)cn(C)c(=O)c12 (stereo not drawn) [Example 84, 2-(5-Fluoro-2-((5-(1-(tetrahydrofuran-3-yl)piperidin-4-yl)pyridin-2-yl)amino)pyrimidin-4-yl)-7-isopropyl-3,5-dimethylthieno[3,2-c]pyridin-4(5H)-one]
18 | ≤ 20 | 20 to 200 | 20 to 200 | 1 to 3 | – | CC(C)c1cn(C)c(=O)c2cc(-c3nc(Nc4ccc(C5CCN(C)CC5)cn4)ncc3F)sc12 [Example 86, 2-(5-Fluoro-2-((5-(1-methylpiperidin-4-yl)pyridin-2-yl)amino)pyrimidin-4-yl)-7-isopropyl-5-methylthieno[3,2-c]pyridin-4(5H)-one]
19 | ≤ 20 | ≤ 20 | 20 to 200 | 1 to 3 | – | CCN1CCC(c2ccc(Nc3ncc(F)c(-c4sc5c(C(C)C)cn(C)c(=O)c5c4C)n3)nc2)CC1 [Example 87, 2-(2-((5-(1-Ethylpiperidin-4-yl)pyridin-2-yl)amino)-5-fluoropyrimidin-4-yl)-7-isopropyl-3,5-dimethylthieno[3,2-c]pyridin-4(5H)-one]
20 | ≤ 20 | 20 to 200 | 20 to 200 | 1 to 3 | – | Cc1c(-c2nc(Nc3ccc(C4CCCN(C)C4)cn3)ncc2F)sc2c(C(C)C)cn(C)c(=O)c12 (stereo not drawn) [Example 88, 2-(5-Fluoro-2-((5-(1-methylpiperidin-3-yl)pyridin-2-yl)amino)pyrimidin-4-yl)-7-isopropyl-3,5-dimethylthieno[3,2-c]pyridin-4(5H)-one]
21 | ≤ 20 | ≤ 20 | 20 to 200 | > 3 | – | Cc1c(-c2nc(Nc3ccc(N4CCN(C(C)C)CC4)cn3)ncc2F)sc2c(C(C)C)cn(C)c(=O)c12 [Example 89, 2-(5-Fluoro-2-((5-(4-isopropylpiperazin-1-yl)pyridin-2-yl)amino)pyrimidin-4-yl)-7-isopropyl-3,5-dimethylthieno[3,2-c]pyridin-4(5H)-one]

From patent US11685744B2, “CDK inhibitors and their use as pharmaceuticals” (Prelude Therapeutics, Incorporated, priority 2020, dated 2023)
